The source of these data is US9388151B2, “Methods for producing 5-(halomethyl) furfural” (MICROMIDAS, INC., priority 2012, dated 2016).

The procedure of this series: The amount of solvent and CMF used are detailed in Table 1.
Once the vials were filled and sealed, each vial was held at the temperatures listed in Table 1 above for 20-30 minutes, at which time a sample was taken and analyzed by HPLC.
An aliquot was analyzed by HPLC. The following HPLC protocol was used. The column was an Agilent Technologies RX-Sil silica column; 4.6×100 mm packed with 1.8 micron silica beads. Column temperature was maintained at 50° C. Injection volume was 1.0 microliter. Mobile phase composition was 80% hexane and 20% tetrahydrofuran flowing at 1.0 mL/min.
Consider `CCCCCC` [Hexane], for which the “solubility for CMF” value is recorded as “relatively low solubility”. In the case of `CCCCCCCCCCCCCCCCCCCC` [Eicosane] it was “relatively low solubility”; in that of `CCCCC` [Pentane], “relatively low solubility”; in that of `CCCCCCCCCCCCCC` [Tetradecane], “relatively low solubility”.

`Clc1ccccc1` [Chlorobenzene]: the “solubility for CMF” value is listed as “relatively soluble”. Under `CCCCCCCCCC` [Decane] stands “relatively low solubility”.
